# Key:
# human GPR139 receptor [1] = molecular target: T1, human GPR139 receptor (Homo sapiens, UniProt Q6DWJ6); assay: GPR139 Competition Binding (membrane-based, tritium-labeled ligand); conditions: T-REx-CHO membranes with human GPR139; 6.5 nM tritium-labeled ligand; 11-point curve, 30 μM maximum concentration; read-out: GPR139 Binding Affinity (pKi) (converted)
# T1 construct: expressed in transfected cells; host or cells: T-REx-CHO (Thermo Fisher Scientific), doxycycline-induced
# T1 sequence (Q6DWJ6 1-353): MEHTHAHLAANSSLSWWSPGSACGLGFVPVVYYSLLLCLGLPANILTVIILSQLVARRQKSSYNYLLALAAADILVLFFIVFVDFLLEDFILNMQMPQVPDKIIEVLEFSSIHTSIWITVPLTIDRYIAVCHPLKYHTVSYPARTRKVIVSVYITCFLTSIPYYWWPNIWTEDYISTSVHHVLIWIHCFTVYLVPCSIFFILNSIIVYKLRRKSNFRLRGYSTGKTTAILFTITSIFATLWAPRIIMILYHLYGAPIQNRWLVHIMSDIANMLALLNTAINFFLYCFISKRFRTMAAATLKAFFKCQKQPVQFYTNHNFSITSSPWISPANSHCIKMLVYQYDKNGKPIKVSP
# In short: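 Membranes came from doxycycline-induced T-REx-CHO cells expressing human GPR139. They were incubated 20 min at room temperature with 6.5 nM tritiated ligand and compound (11 points, top 30 μM) in HEPES pH 7.3 buffer with MgCl2/CaCl2. Filter-bound counts gave Ki by four-parameter fit, reported as pKi.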
# human GPR139 receptor [2] = molecular target: T1, human GPR139 receptor; assay: Measurement of GPR139 Activation Via Calcium Signaling (FLIPR, T-REx-CHO cells); type: cell-based; conditions: T-REx-CHO cells stably expressing human GPR139, 11-point dose response, 10 μM maximum concentration, read-out: GPR139 Potency (pEC50) (converted)
# In short: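 T-REx-CHO cells stably carrying human GPR139 under tetracycline control, induced with 2 μg/mL doxycycline for 17 h at 37 °C, loaded 40 min with Calcium 5 dye plus probenecid in HBSS/HEPES pH 7.4. Agonist added as 11-point series (10 μM top); fluorescence read 1 min; pEC50 from four-parameter fit.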
Ki (human GPR139 receptor [1]) [nM],EC50 (human GPR139 receptor [2]) [nM],Compound
2.09,50.1,"Cc1ccc([C@H](C)NC(=O)Cn2nc(C)c3c(c(C4CC4)nn3C)c2=O)c(F)c1 [Example 117, (S)-2-(3-cyclopropyl-1,7-dimethyl-4-oxo-1,4-dihydro-5H-pyrazolo[3,4-d]pyridazin-5-yl)-N-(1-(2-fluoro-4-methylphenyl)ethyl)acetamide]"
3.72,67.6,"Cc1ccc([C@H](C)NC(=O)Cn2ncc3c(c(C)cn3C3CC3)c2=O)c(C)c1 [Example 65, (S)-2-(1-cyclopropyl-3-methyl-4-oxo-1,4-dihydro-5H-pyrrolo[2,3-d]pyridazin-5-yl)-N-(1-(2,4-dimethylphenyl)ethyl)acetamide]"
95.5,123,Cc1ccc([C@H](C)NC(=O)Cn2ncc3c(c(C)nn3C)c2=O)c(F)c1 [Example 99]
75.9,34.7,"Cc1ccc([C@H](C)NC(=O)Cn2ncc3c(c(C)nn3C3CC3)c2=O)c(F)c1 [Example 108, (S)-2-(1-cyclopropyl-3-methyl-4-oxo-1,4-dihydro-5H-pyrazolo[3,4-d]pyridazin-5-yl)-N-(1-(2-fluoro-4-methylphenyl)ethyl)acetamide]"
38,17.8,"Cc1ccc([C@H](C)NC(=O)Cn2ncc3c(c(C)nn3C3CC3)c2=O)cc1F [Example 130, (S)-2-(1-cyclopropyl-3-methyl-4-oxo-1,4-dihydro-5H-pyrazolo[3,4-d]pyridazin-5-yl)-N-(1-(3-fluoro-4-methylphenyl)ethyl)acetamide]"
1020,79.4,"Cc1ccc([C@H](C)NC(=O)Cn2ncc3c(cnn3C)c2=O)c(F)c1 [Example 35, (S)—N-(1-(2-fluoro-4-methylphenyl)ethyl)-2-(1-methyl-4-oxo-1,4-dihydro-5H-pyrazolo[3,4-d]pyridazin-5-yl)acetamide]"
550,41.7,Cc1ccc([C@H](C)NC(=O)Cn2nc(C)c3c(cnn3C)c2=O)c(F)c1 [Example 82]
316,63.1,"[2H]C([2H])([2H])c1ccc([C@H](C)NC(=O)Cn2ncc3c(c(C)nn3C3CC3)c2=O)cc1 [Example 167, (S)-2-(1-cyclopropyl-3-methyl-4-oxo-1,4-dihydro-5H-pyrazolo[3,4-d]pyridazin-5-yl)-N-(1-(4-(methyl-d3)phenyl)ethyl)acetamide]"
257,67.6,"Cc1nn(C2CC2)c2cnn(CC(=O)N[C@@H](C)c3ccc(F)cc3F)c(=O)c12 [Example 128, (S)-2-(1-cyclopropyl-3-methyl-4-oxo-1,4-dihydro-5H-pyrazolo[3,4-d]pyridazin-5-yl)-N-(1-(2,4-difluorophenyl)ethyl)acetamide]"
1070,67.6,"COc1ccc([C@H](C)NC(=O)Cn2ncc3c(c(C)nn3C)c2=O)c(F)c1 [Example 19, (S)-2-(1,3-dimethyl-4-oxo-1,4-dihydro-5H-pyrazolo[3,4-d]pyridazin-5-yl)-N-(1-(2-fluoro-4-methoxyphenyl)ethyl)acetamide]"
70.8,12.6,"Cc1ccc([C@H](C)NC(=O)Cn2ncc3ccn(C)c3c2=O)c(F)c1 [Example 165, (S)—N-(1-(2-fluoro-4-methylphenyl)ethyl)-2-(1-methyl-7-oxo-1,7-dihydro-6H-pyrrolo[2,3-d]pyridazin-6-yl)acetamide]"
81.3,91.2,"Cc1nn(C2CC2)c2cnn(CC(=O)N[C@@H](C)c3c(F)cccc3Cl)c(=O)c12 [Example 136, (S)—N-(1-(2-chloro-6-fluorophenyl)ethyl)-2-(1-cyclopropyl-3-methyl-4-oxo-1,4-dihydro-5H-pyrazolo[3,4-d]pyridazin-5-yl)acetamide]"
9.12,105,"Cc1ccc([C@H](C)NC(=O)Cn2nc(C)c3c(C)nn(C4CC4)c3c2=O)cc1 [Example 22, (S)-2-(1-cyclopropyl-3,4-dimethyl-7-oxo-1,7-dihydro-6H-pyrazolo[3,4-d]pyridazin-6-yl)-N-(1-(p-tolyl)ethyl)acetamide]"

# Continued, molecule first:
Compound,Ki (human GPR139 receptor [1]) [nM],EC50 (human GPR139 receptor [2]) [nM]
"Cc1ccc([C@H](C)NC(=O)Cn2nc(C3CC3)c3cnn(-c4ccccc4)c3c2=O)cc1 [Example 43, (S)-2-(4-cyclopropyl-7-oxo-1-phenyl-1,7-dihydro-6H-pyrazolo[3,4-d]pyridazin-6-yl)-N-(1-(p-tolyl)ethyl)acetamide]",89.1,708
"Cc1nn(C2CC2)c2cnn(CC(=O)N[C@H](C)c3ccc(C(F)(F)F)cc3)c(=O)c12 [Example 160, (R)-2-(1-cyclopropyl-3-methyl-4-oxo-1,4-dihydro-5H-pyrazolo[3,4-d]pyridazin-5-yl)-N-(1-(4-(trifluoromethyl)phenyl)ethyl)acetamide]",30200,295
"Cc1ccc([C@H](C)NC(=O)Cn2nc(C)c3cnn(C(C)(C)C)c3c2=O)c(F)c1 [Example 16, (S)-2-(1-(tert-butyl)-4-methyl-7-oxo-1,7-dihydro-6H-pyrazolo[3,4-d]pyridazin-6-yl)-N-(1-(2-fluoro-4-methylphenyl)ethyl)acetamide]",11,200
"Cc1ccc([C@H](C)NC(=O)Cn2nc(C)c3cnn(-c4ccccc4)c3c2=O)c(F)c1 [Example 6, (S)—N-(1-(2-fluoro-4-methylphenyl)ethyl)-2-(4-methyl-7-oxo-1-phenyl-1,7-dihydro-6H-pyrazolo[3,4-d]pyridazin-6-yl)acetamide]",23.4,≥ 10000
"Cc1ccc([C@H](C)NC(=O)Cn2nc(C)c3c(C)nn(C4CC4)c3c2=O)cc1F [Example 68, (S)-2-(1-cyclopropyl-3,4-dimethyl-7-oxo-1,7-dihydro-6H-pyrazolo[3,4-d]pyridazin-6-yl)-N-(1-(3-fluoro-4-methylphenyl)ethyl)acetamide]",0.347,69.2
"Cc1nn(CC(=O)N[C@@H](C)c2ccc(C(F)(F)F)cn2)c(=O)c2c1c(C)nn2C1CC1 [Example 101, (S)-2-(1-cyclopropyl-3,4-dimethyl-7-oxo-1,7-dihydro-6H-pyrazolo[3,4-d]pyridazin-6-yl)-N-(1-(5-(trifluoromethyl)pyridin-2-yl)ethyl)acetamide]",282,398
"Cc1ccc([C@H](C)NC(=O)Cn2ncc3ccn(C)c3c2=O)cc1 [Example 162, (S)-2-(1-methyl-7-oxo-1,7-dihydro-6H-pyrrolo[2,3-d]pyridazin-6-yl)-N-(1-(p-tolyl)ethyl)acetamide]",195,13.2
"Cc1nn(C2CC2)c2cnn(CC(=O)NC(C)c3ccc4c(c3)OCCO4)c(=O)c12 (stereo not drawn) [Example 106, 2-(1-cyclopropyl-3-methyl-4-oxo-1,4-dihydro-5H-pyrazolo[3,4-d]pyridazin-5-yl)-N-(1-(2,3-dihydrobenzo[b][1,4]dioxin-6-yl)ethyl)acetamide]",2000,57.5
"C[C@H](NC(=O)Cn1ncc2c(C3CC3)nn(C)c2c1=O)c1ccc(OC(F)(F)F)cc1 [Example 143, (S)-2-(3-cyclopropyl-1-methyl-7-oxo-1,7-dihydro-6H-pyrazolo[3,4-d]pyridazin-6-yl)-N-(1-(4-(trifluoromethoxy)phenyl)ethyl)acetamide]",178,117
"Cc1nn(CC(=O)N[C@@H](C)c2ccc(C(F)(F)F)cn2)c(=O)c2ncn(C)c12 [Example 137, (S)-2-(1,7-dimethyl-4-oxo-1,4-dihydro-5H-imidazo[4,5-d]pyridazin-5-yl)-N-(1-(5-(trifluoromethyl)pyridin-2-yl)ethyl)acetamide]",30200,2630
"Cc1ccc([C@H](C)NC(=O)Cn2ncc3c(C4CC4)nn(C)c3c2=O)cc1 [Example 149, (S)-2-(3-cyclopropyl-1-methyl-7-oxo-1,7-dihydro-6H-pyrazolo[3,4-d]pyridazin-6-yl)-N-(1-(p-tolyl)ethyl)acetamide]",219,26.3
"Cc1cc(C)c([C@H](C)NC(=O)Cn2nc(C)c3c(C)nn(C4CC4)c3c2=O)c(C)c1 [Example 70, (S)-2-(1-cyclopropyl-3,4-dimethyl-7-oxo-1,7-dihydro-6H-pyrazolo[3,4-d]pyridazin-6-yl)-N-(1-mesitylethyl)acetamide]",0.759,178
"Cc1nn(C(C)C)c2c(=O)n(CC(=O)N[C@@H](C)c3ccc(C(F)(F)F)cn3)ncc12 [Example 103, (S)-2-(1-isopropyl-3-methyl-7-oxo-1,7-dihydro-6H-pyrazolo[3,4-d]pyridazin-6-yl)-N-(1-(5-(trifluoromethyl)pyridin-2-yl)ethyl)acetamide]",10000,219
"Cc1nn(CC(=O)NC(C)c2ccc3c(c2)CCCO3)c(=O)c2c1c(C)nn2C1CC1 (stereo not drawn) [Example 61, N-(1-(chroman-6-yl)ethyl)-2-(1-cyclopropyl-3,4-dimethyl-7-oxo-1,7-dihydro-6H-pyrazolo[3,4-d]pyridazin-6-yl)acetamide]",41.7,141

# From patent US12370192B2, “Azole-fused pyridazin-3(2H)-one derivatives” (TAKEDA PHARMACEUTICAL COMPANY LIMITED, priority 2019, dated 2025)
